Like-named read-outs stand apart in the source and are kept apart here.
Target: T1, Human GO (Homo sapiens, UniProt Q9UJM8)
T1 construct: purchased Novus Biologicals NBP1-72412
T1 sequence (Q9UJM8 1-370): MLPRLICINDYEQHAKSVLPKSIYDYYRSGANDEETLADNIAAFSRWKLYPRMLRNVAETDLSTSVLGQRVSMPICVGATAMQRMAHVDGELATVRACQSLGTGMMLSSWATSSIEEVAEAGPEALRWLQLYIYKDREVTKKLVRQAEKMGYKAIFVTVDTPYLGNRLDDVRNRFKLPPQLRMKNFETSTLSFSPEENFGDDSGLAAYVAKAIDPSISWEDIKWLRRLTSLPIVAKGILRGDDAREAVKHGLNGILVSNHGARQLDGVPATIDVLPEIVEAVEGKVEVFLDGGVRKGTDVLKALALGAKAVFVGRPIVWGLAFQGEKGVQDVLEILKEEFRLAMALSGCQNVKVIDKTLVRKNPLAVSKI
Assay: GO enzymatic assay (coupled fluorescence/HRP assay, glycolate substrate)
Assay type: biochemical
Settings: read-out: Range (range of IC50 values calculated from the enzymatic assays)
Procedure, shortened: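 Human GO incubated with glycolate substrate in 50 mM potassium phosphate, pH 7, with varying inhibitor concentrations. Activity read by coupled HRP fluorescence. IC50 taken from variable-slope sigmoidal dose-response fits of percent inhibition relative to DMSO control.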

| Compound | IC50 (Table 2) | further results |
| --- | --- | --- |
| O=C(O)c1[nH]nnc1SC1CCN(c2ccc(OC(F)(F)F)c(Cl)c2)CC1 [Compound 346, 4-((1-(3-chloro-4-(trifluoromethoxy)phenyl)piperidin-4-yl)thio)-1H-1,2,3-triazole-5-carboxylic acid] | < 100 nM | – |
| O=C(O)c1[nH]nnc1S[C@H]1CC[C@@H](c2ccc(N3CCCC3)cc2)CC1 [Compound 347, 4-(((cis)-4-(4-(pyrrolidin-1-yl)phenyl)cyclohexyl)thio)-1H-1,2,3-triazole-5-carboxylic acid 2,2,2-trifluoroacetate] | < 100 nM | – |
| O=C(O)c1[nH]nnc1S[C@H]1CC[C@@H](c2ccc(OC(F)(F)F)cc2)CC1 [Compound 348, 4-(((cis)-4-(4-(trifluoromethoxy)phenyl)cyclohexyl)thio)-1H-1,2,3-triazole-5-carboxylic acid] | < 100 nM | – |
| CC1CCCCN1c1ccc(-c2ccc(Sc3nn[nH]c3C(=O)O)cc2)cc1 (stereo not shown) [Compound 349, 4-((4′-(2-methylpiperidin-1-yl)-[1,1′-biphenyl]-4-yl)thio)-1H-1,2,3-triazole-5-carboxylic acid 2,2,2-trifluoroacetate] | < 100 nM | – |
| O=C(O)c1[nH]nnc1CSC1CCN(c2cc(Cl)cc(Cl)c2)CC1 [Compound 350, 4-(((1-(3,5-dichlorophenyl)piperidin-4-yl)thio)methyl)-1H-1,2,3-triazole-5-carboxylic acid 2,2,2-trifluoroacetate] | < 100 nM | – |
| O=C(O)c1[nH]nnc1Sc1cccc(OC2CCCC2)c1 [Compound 351, 4-((3-(cyclopentyloxy)phenyl)thio)-1H-1,2,3-triazole-5-carboxylic acid 2,2,2-trifluoroacetate] | 100 to 1000 nM | – |
| N#Cc1ccc([C@H]2CC[C@@H](Sc3nn[nH]c3C(=O)O)CC2)cc1 [Compound 352, 4-(((cis)-4-(4-cyanophenyl)cyclohexyl)thio)-1H-1,2,3-triazole-5-carboxylic acid] | < 100 nM | – |
| O=C(O)c1[nH]nnc1Oc1ccc(Cl)c(OCC2CCCC2)c1 [Compound 353, 4-(4-chloro-3-(cyclopentylmethoxy)phenoxy)-1H-1,2,3-triazole-5-carboxylic acid 2,2,2-trifluoroacetate] | < 100 nM | – |
| O=C(O)c1[nH]nnc1OC1CCN(c2cc(Cl)cc(OC(F)(F)F)c2)CC1 [Compound 354, 4-((1-(3-chloro-5-(trifluoromethoxy)phenyl)piperidin-4-yl)oxy)-1H-1,2,3-triazole-5-carboxylic acid] | < 100 nM | – |
| O=C(O)c1[nH]nnc1O[C@H]1CC[C@@H](c2cc(Cl)cc(OC(F)(F)F)c2)CC1 [Compound 355, 4-(((cis)-4-(3-chloro-5-(trifluoromethoxy)phenyl)cyclohexyl)oxy)-1H-1,2,3-triazole-5-carboxylic acid] | < 100 nM | – |
| O=C(O)c1[nH]nnc1O[C@H]1CC[C@@H](c2ccc(N3CCCC3)cc2)CC1 [Compound 356, 4-(((cis)-4-(4-(pyrrolidin-1-yl)phenyl)cyclohexyl)oxy)-1H-1,2,3-triazole-5-carboxylic acid 2,2,2-trifluoroacetate] | < 100 nM | – |
| O=C(O)c1[nH]nnc1Oc1cc(OCC2CCCC2)ccc1Cl [Compound 357, 4-(2-chloro-5-(cyclopentylmethoxy)phenoxy)-1H-1,2,3-triazole-5-carboxylic acid] | < 100 nM | – |
| O=C(O)c1[nH]nnc1Oc1cc(Cl)cc(OC(F)(F)F)c1 [Compound 358, 4-(3-chloro-5-(trifluoromethoxy)phenoxy)-1H-1,2,3-triazole-5-carboxylic acid] | < 100 nM | – |
| N#Cc1ccc(N2CCC(Oc3nn[nH]c3C(=O)O)CC2)cc1 [Compound 359, 4-((1-(4-cyanophenyl)piperidin-4-yl)oxy)-1H-1,2,3-triazole-5-carboxylic acid 2,2,2-trifluoroacetate] | < 100 nM | – |
| O=C(O)c1[nH]nnc1O[C@H]1CC[C@@H](c2ccc(OC(F)(F)F)c(Cl)c2)CC1 [Compound 360, 4-(((cis)-4-(3-chloro-4-(trifluoromethoxy)phenyl)cyclohexyl)oxy)-1H-1,2,3-triazole-5-carboxylic acid] | < 100 nM | – |
| O=C(O)c1[nH]nnc1OC1CCN(c2ccc(OC(F)(F)F)c(Cl)c2)CC1 [Compound 361, 4-((1-(3-chloro-4-(trifluoromethoxy)phenyl)piperidin-4-yl)oxy)-1H-1,2,3-triazole-5-carboxylic acid] | < 100 nM | – |
| O=C(O)c1[nH]nnc1Oc1ccc(Cl)c(OCc2ccc(F)cc2)c1 [Compound 362, 4-(4-chloro-3-((4-fluorobenzyl)oxy)phenoxy)-1H-1,2,3-triazole-5-carboxylic acid] | < 100 nM | – |

| Compound | IC50 (Table 2) | further results |
| --- | --- | --- |
| NC(=O)c1ccc([C@H]2CC[C@@H](Oc3nn[nH]c3C(=O)O)CC2)cc1 [Compound 363, 4-(((cis)-4-(4-carbamoylphenyl)cyclohexyl)oxy)-1H-1,2,3-triazole-5-carboxylic acid 2,2,2-trifluoroacetate] | < 100 nM | – |
| NC(=O)c1ccc([C@H]2CC[C@H](Oc3nn[nH]c3C(=O)O)CC2)cc1 [Compound 364, 4-(((trans)-4-(4-carbamoylphenyl)cyclohexyl)oxy)-1H-1,2,3-triazole-5-carboxylic acid 2,2,2-trifluoroacetate] | < 100 nM | – |
| N#Cc1ccc([C@H]2CC[C@@H](Oc3nn[nH]c3C(=O)O)CC2)cc1 [Compound 365, 4-(((cis)-4-(4-cyanophenyl)cyclohexyl)oxy)-1H-1,2,3-triazole-5-carboxylic acid] | < 100 nM | – |
| O=C(O)c1[nH]nnc1OC(Cc1ccc(-c2ccc(OC(F)(F)F)cc2)cc1)Cc1ccc(-c2ccc(OC(F)(F)F)cc2)cc1 [Compound 366, 4-((1,3-bis(4′-(trifluoromethoxy)-[1,1′-biphenyl]-4-yl)propan-2-yl)oxy)-1H-1,2,3-triazole-5-carboxylic acid] | – | IC50 (Table 3): 100 to 1000 nM |
| O=C(O)c1[nH]nnc1OC1CCN(c2cc(Cl)ccc2OC(F)(F)F)CC1 [Compound 367, 4-((1-(5-chloro-2-(trifluoromethoxy)phenyl)piperidin-4-yl)oxy)-1H-1,2,3-triazole-5-carboxylic acid 2,2,2-trifluoroacetate] | < 100 nM | – |
| O=C(O)c1[nH]nnc1O[C@H]1CC[C@@H](c2ccc(N3CCC(F)(F)CC3)cc2)CC1 [Compound 368, 4-(((cis)-4-(4-(4,4-difluoropiperidin-1-yl)phenyl)cyclohexyl)oxy)-1H-1,2,3-triazole-5-carboxylic acid 2,2,2-trifluoroacetate] | < 100 nM | – |
| O=C(O)c1[nH]nnc1OCC1C2CN(c3ccc(Cl)c(Cl)c3)CC12 (stereo not shown) [Compound 369, 4-((3-(3,4-dichlorophenyl)-3-azabicyclo[3.1.0]hexan-6-yl)methoxy)-1H-1,2,3-triazole-5-carboxylic acid] | < 100 nM | – |
| CCN(CC)C(=O)OCOC(=O)c1[nH]nnc1O[C@H]1CC[C@H](c2ccc(OC(F)(F)F)cc2)CC1 [Compound 370, ((diethylcarbamoyl)oxy)methyl 4-(((trans)-4-(4-(trifluoromethoxy)phenyl)cyclohexyl)oxy)-1H-1,2,3-triazole-5-carboxylate] | > 10000 nM | – |
| O=C(O)c1[nH]nnc1CCN(Cc1ccc(Cl)cc1)Cc1ccc(Cl)cc1 [Compound 372, 4-(2-(bis(4-chlorobenzyl)amino)ethyl)-1H-1,2,3-triazole-5-carboxylic acid 2,2,2-trifluoroacetate] | – | IC50 (Table 3): 100 to 1000 nM |
| O=C(O)c1[nH]nnc1SCC1C2CN(c3ccc(Cl)c(Cl)c3)CC12 (stereo not shown) [Compound 373, 4-(((3-(3,4-dichlorophenyl)-3-azabicyclo[3.1.0]hexan-6-yl)methyl)thio)-1H-1,2,3-triazole-5-carboxylic acid] | < 100 nM | – |
| O=C(O)c1[nH]nnc1CCN(Cc1ccc(Cl)cc1)Cc1ccc(-c2ccc(OC(F)(F)F)cc2)cc1 [Compound 374, 4-(2-((4-chlorobenzyl)((4′-(trifluoromethoxy)-[1,1′-biphenyl]-4-yl)methyl)amino)ethyl)-1H-1,2,3-triazole-5-carboxylic acid 2,2,2-trifluoroacetate] | – | IC50 (Table 3): 100 to 1000 nM |
| O=C(O)c1[nH]nnc1Oc1cccc(OC2CCCC2)c1 [Compound 375, 4-(3-(cyclopentyloxy)phenoxy)-1H-1,2,3-triazole-5-carboxylic acid 2,2,2-trifluoroacetate] | < 100 nM | – |
| O=C(O)c1[nH]nnc1OC(c1ccccc1)C(O)c1ccc(Cl)cc1 (stereo not shown) [Compound 378, 4-(2-(4-chlorophenyl)-2-hydroxy-1-phenylethoxy)-1H-1,2,3-triazole-5-carboxylic acid] | – | IC50 (Table 4): 100 to 1000 nM; IC50 (Table 5, GO enzymatic assay): 100 to 1000 nM |
| O=C(O)c1[nH]nnc1OC(Cc1ccc(Cl)cc1)Cc1ccc(-c2ccc(OC(F)(F)F)cc2)cc1 (stereo not shown) [Compound 385, 4-((1-(4-chlorophenyl)-3-(4′-(trifluoromethoxy)-[1,1′-biphenyl]-4-yl)propan-2-yl)oxy)-1H-1,2,3-triazole-5-carboxylic acid 2,2,2-trifluoroacetate] | – | IC50 (Table 5, GO enzymatic assay): 100 to 1000 nM |
| N#Cc1ccc(-c2ccc(Sc3nn[nH]c3C(=O)O)cc2)cc1 [Compound 389, 4-((4′-cyano-[1,1′-biphenyl]-4-yl)thio)-1H-1,2,3-triazole-5-carboxylic acid 2,2,2-trifluoroacetate] | – | IC50 (Table 4): < 100 nM |
| CC(OC(=O)c1[nH]nnc1O[C@H]1CC[C@H](c2ccc(OC(F)(F)F)cc2)CC1)OC(=O)C1CCCCC1 (stereo partly drawn) [Compound 391, 1-((cyclohexanecarbonyl)oxy)ethyl 4-(((trans)-4-(4-(trifluoromethoxy)phenyl)cyclohexyl)oxy)-1H-1,2,3-triazole-5-carboxylate] | – | IC50 (Table 4): 100 to 1000 nM |

Source: patent US11384055B2 (BIOMARIN PHARMACEUTICAL INC., priority 2017, dated 2022)
